Assay results reported in PubChem BioAssay AID1645868 (Buhrlage Lab, Dana-Farber Cancer Institute and Novartis …, 2021).
Calls of active or inactive are those of the source.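 How the source made its calls: active means maximal percent inhibition of the deubiquitinase OTUD3 of at least 30% across the tested doses; inactive means the rest.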

Biological target: OTU domain-containing protein 3 (Homo sapiens) (UniProt Q5T2D3)
Assay: Validation of screening hits, potency titration, in vitro enzymatic, OTU domain-containing protein 3 DUB inhibitors (AID 1645868)
Conditions: purified OTUD3, ubiquitin-rhodamine cleavage fluorescence, 2 h

Chain of OTU domain-containing protein 3 (Homo sapiens) (Q5T2D3 whole entry, looked up, the tested form may be a part): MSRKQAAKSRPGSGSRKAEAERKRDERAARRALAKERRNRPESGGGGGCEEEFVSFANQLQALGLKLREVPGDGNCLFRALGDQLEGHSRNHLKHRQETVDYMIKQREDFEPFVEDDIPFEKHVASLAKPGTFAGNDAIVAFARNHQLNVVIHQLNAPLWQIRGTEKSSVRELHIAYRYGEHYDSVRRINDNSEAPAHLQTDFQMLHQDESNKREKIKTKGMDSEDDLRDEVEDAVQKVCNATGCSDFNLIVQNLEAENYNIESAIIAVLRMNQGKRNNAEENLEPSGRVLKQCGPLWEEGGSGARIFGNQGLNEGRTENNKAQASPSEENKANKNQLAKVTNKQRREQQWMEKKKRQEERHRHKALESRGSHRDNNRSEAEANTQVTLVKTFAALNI

O=[N+]([O-])c1ccc(NCC2COc3ccccc3O2)c(Cl)c1 (stereo unspecified)
IC50: > 50 µM (inactive)

O=C(CSc1ncnc2c1sc1cccc(F)c12)N1CCCCCC1
IC50: > 50 µM (inactive)

C[C@@H](C(=O)NCc1ccc(F)cc1)N1C(=O)N2CCc3c([nH]c4ccccc34)[C@@]2(C)C1=O
IC50: 24.1 µM

CCOC(=O)[C@@H]1[C@@H](c2ccccc2)CN2CCN(C(=O)c3cnccn3)C[C@H]12
IC50: > 50 µM (inactive)

O=C(NCc1ccccc1Cl)C1CCCN(c2nc3ccsc3c(=O)s2)C1 (stereo unspecified)
IC50: > 50 µM (inactive)

COc1cc(O)c2c(O)c3c(cc2c1)CC(C)OC3=O (stereo unspecified)
IC50: > 50 µM (inactive)

CCN(c1ccc(NC(=O)CSc2nnc(-c3ccccc3)n2-c2ccc(OC)c(OC)c2)cc1)C(C)C
IC50: 19.7 µM

CO[C@H]1CC[C@H](O)c2c1oc1c3c4c(c(O)c1c2=O)-c1c(cc2c(Cl)c(C)n(N)c(=O)c2c1O)C[C@@H]4OCO3
IC50: 26.6 µM

COc1ccc(CC(=O)NCc2ccc3[nH]c(C)cc3c2)cc1
IC50: > 50 µM (inactive)

COc1ccc(CC(=O)Nc2nc(-c3ccco3)c(-c3ccco3)s2)cc1
IC50: > 50 µM (inactive)

COc1ccc(-c2cc(-c3ccccc3)nc(SCC(N)=O)c2C#N)cc1OC
IC50: 10.5 µM

Cc1ccc(-n2nc(C)c3c2NC(=O)CC3C(=O)c2cc3ccccc3o2)cc1C (stereo unspecified)
IC50: > 50 µM (inactive)

O=C(NCc1ccccc1)c1ccc(-c2ccc(N3CCCC3)nn2)cc1
IC50: > 50 µM (inactive)

O=C(CSc1nnc(Cn2cnc3ccccc32)o1)Nc1ccc([N+](=O)[O-])cc1
IC50: 20.2 µM

O=C(Cn1ncc2c(N3CCCCCC3)ncnc21)NCc1ccccc1
IC50: > 50 µM (inactive)

CN(C)c1ccc(/C=N/NC(=O)c2ccc(Cl)cc2)cc1
IC50: 24.1 µM

O=C(COc1cccc(-n2cnnn2)c1)Nc1ccc2c(c1)OCCO2
IC50: > 50 µM (inactive)

Cc1cc(Cl)ccc1Nc1nc(Nc2cccc(F)c2)nc2nccnc12
IC50: > 50 µM (inactive)

O=C(c1cscn1)N1CCC2(CC1)CC1(CO2)Nc2ccccc2-n2cccc21 (stereo unspecified)
IC50: > 50 µM (inactive)

COc1ccccc1OCCNC(=O)c1cc(C2CC2)nc2c1cnn2C(C)C
IC50: > 50 µM (inactive)

COc1cccc(C(=O)NCc2[nH]nc3ccccc23)c1
IC50: > 50 µM (inactive)

COc1ccccc1-c1nc(Cn2nnc(C(=O)Nc3cc(C)cc(C)c3)c2N)c(C)o1
IC50: > 50 µM (inactive)

NC(=O)c1nnn(-c2ccc(NC(=O)c3ccc(F)c(F)c3)cc2)n1
IC50: 20.3 µM

Cc1ccc2c(C)nc(Nc3ncc4c(n3)CC(c3ccco3)CC4=O)nc2c1 (stereo unspecified)
IC50: 0.168 µM

COc1cc(Cl)ccc1C(=O)Nc1cccc(-n2cnnn2)c1C
IC50: 16.3 µM

O=C(NC1(O)C(=O)c2ccccc2C1=O)c1cccc2c1-c1ccccc1C2=O
IC50: 35.1 µM

Fc1cccc(-n2cc(-c3noc(-c4ccccn4)n3)nn2)c1
IC50: 27 µM

Cc1ccc(NC(=O)Cn2c(Nc3cccc(C)c3)nc(C)cc2=O)cc1
IC50: 31 µM

O=C(CNc1nc(Nc2ccccc2F)nc(Nc2ccccc2F)n1)Nc1ccccc1
IC50: 42 µM

Cc1cc(C(=O)COC(=O)c2ccc[nH]c2=O)c(C)n1-c1ccc2c(c1)OCO2
IC50: > 50 µM (inactive)

COc1ccc(N(CC(=O)Nc2cccc(F)c2)S(=O)(=O)c2ccc(OC)c(OC)c2)cc1
IC50: 22.4 µM

O=C(NCc1cccnc1)c1cnn2c(C(F)(F)F)cc(-c3ccc(F)cc3)nc12
IC50: > 50 µM (inactive)

O=C(Nc1ccc(-c2nnc3n2CCCCC3)cc1)c1ccc2c(c1)OCO2
IC50: > 50 µM (inactive)

O=C1Oc2nc3ccccc3cc2CN1Cc1ccco1
IC50: 34.4 µM

COC(=O)c1cc2c(ccn2C)n1CC(=O)NC1CC1
IC50: > 50 µM (inactive)

Oc1ccc(-c2nc3cnccn3c2NCCc2ccccc2)c(O)c1
IC50: > 50 µM (inactive)

Cc1cc(C)n(-c2cccc(C(=O)Nc3ccc4c(c3)CCN4S(C)(=O)=O)c2)n1
IC50: > 50 µM (inactive)

CCC1=C(c2ccc(C)cc2)S(=O)(=O)NC1=NCC(=O)NC(C)c1ccccc1 (stereo unspecified)
IC50: 20.5 µM

COc1cc(NC(=O)Cc2ccccc2)ccc1NC(=O)c1cc2ccccc2o1
IC50: 16.4 µM

CCCCCn1c(Sc2ccc(C)cc2)nc2c1c(=O)[nH]c(=O)n2C
IC50: 35.1 µM

COCCNC(=O)c1ccc(-c2ccc(N3CCCCC3)nc2)cc1
IC50: 25 µM

Fc1cccc(Cn2cc(-c3noc(-c4ccncc4)n3)nn2)c1
IC50: > 50 µM (inactive)

Cc1sc(NC(=O)CNc2ccccc2)nc1-c1ccc2c(c1)CCN2C(=O)C(C)C
IC50: > 50 µM (inactive)

COc1ccc(C)cc1NC(=O)C1CC(=O)Nc2nc(SCc3ccccc3)nn21 (stereo unspecified)
IC50: 16.9 µM

O=C(Cn1ccc2ccc(N3CCOCC3)nc21)NCc1ccccc1F
IC50: > 50 µM (inactive)

Cn1c(=O)[nH]c(=O)c2c1nc1n(CCc3ccccc3)c(-c3ccccc3)cn21
IC50: > 50 µM (inactive)

COc1cc(NC(=O)Cn2nc(-c3ccc(F)cc3)ccc2=O)ccc1-n1cnnn1
IC50: 5.56 µM

Cc1cccc(NC(=O)c2nc(N3CCSCC3)c3cnn(C)c3n2)c1
IC50: > 50 µM (inactive)

Nc1ccc(NC(=O)c2cc3c(s2)CCC3)cc1[N+](=O)[O-]
IC50: 23.5 µM

Cc1noc(C)c1S(=O)(=O)Nc1ccc(C(=O)Nc2ccc3c(c2)OCCO3)cc1
IC50: > 50 µM (inactive)

Nc1c(-c2ccc(Cl)cc2)cnc2cc(-c3ccc(Cl)c(Cl)c3)nn12
IC50: 16.1 µM

Cc1nc2c3ccccc3nc(NCc3ccc4c(c3)OCO4)n2n1
IC50: > 50 µM (inactive)

CC(=O)CN1CC2(CCN(Cc3ccc(F)cc3)CC2)COc2ccccc2S1(=O)=O
IC50: > 50 µM (inactive)

Cc1ccc2c(c1C)NC(=O)[C@]21[C@@H]2C(=O)N(c3cccc(Cl)c3)C(=O)[C@@H]2[C@@H]2CCCN21
IC50: > 50 µM (inactive)

Cc1ccc(C)c(NS(=O)(=O)c2cc(-c3cnc(C4CC4)o3)ccc2C)c1
IC50: > 50 µM (inactive)

COc1cccc(CNC(=O)c2ccc3c(c2)NC(=O)C2CCCN32)c1OC (stereo unspecified)
IC50: > 50 µM (inactive)

CCOc1ccc(NS(=O)(=O)c2ccc(NC(=O)Nc3ccccc3)cc2)cc1
IC50: 37.2 µM

Cc1c(C)n(-c2ccccc2)c2ncn(CC(=O)NC(C)c3ccccc3)c(=O)c12 (stereo unspecified)
IC50: 21 µM

Fc1ccc(Cn2ccc(-c3cnc(-c4ccccc4)s3)n2)cc1
IC50: > 50 µM (inactive)

C=C1CCC2[C@](C)(CCC[C@]2(C)C(=O)OC)[C@H]1CCc1ccoc1CNC(C)C (stereo partly specified)
IC50: > 50 µM (inactive)

COc1ccc(N(CC(=O)NC2CCCCC2)C(=O)c2ccc(-c3ccccc3)[nH]2)cc1OC
IC50: 11.8 µM

Cc1cccc(C(=O)Nc2ccc3c(c2)nc(CSc2nccc(C)n2)n3C)c1
IC50: > 50 µM (inactive)

COC(=O)c1ccc(Cn2cnc3ccc(F)cc3c2=O)o1
IC50: > 50 µM (inactive)

COc1ccc2nc3c(cc2c1)c(=O)n(C)c1c3c(=O)n(-c2ccccc2)c(=O)n1-c1ccccc1
IC50: > 50 µM (inactive)

Nc1nonc1C(=O)NCCNCc1cccc(OCc2ccc(Cl)cc2)c1
IC50: > 50 µM (inactive)

O=C(Nc1cccc(C(F)(F)F)c1)N1CCCn2c(nc3ccccc32)C1
IC50: 37.6 µM

CCCCc1ccc(-c2cc(C(=O)NCCN3CCOCC3)c3cc(Br)ccc3n2)cc1
IC50: 23.4 µM

O=c1c2ccccc2c(-c2nc(-c3ccncc3)no2)cn1-c1ccccc1
IC50: > 5 µM (inactive)

Cc1ccc(NC(=O)C2CCN(c3cncnc3N3CCCC3)CC2)cc1
IC50: > 50 µM (inactive)

COc1ccc(CN2C[C@@H]3C[C@]3(c3ccccc3)C(=O)c3ncccc32)cc1
IC50: > 50 µM (inactive)

COc1ccc(OCCn2c(C3CC(=O)N(c4cccc(C)c4)C3)nc3ccccc32)cc1 (stereo unspecified)
IC50: 2.42 µM

CC(C)(C)c1ccc(-c2nnc3n2-c2ccccc2SC3)cc1
IC50: > 50 µM (inactive)

CCOc1ccc(S(=O)(=O)Nc2ccc[nH]c2=O)cc1
IC50: > 50 µM (inactive)

Cc1cccc(C(=O)NCc2nc3ccccc3n2Cc2ccccc2C)c1
IC50: > 50 µM (inactive)

Cc1ccc(C)c(-n2c(N)c(C(=O)NCCc3ccccc3)c3nc4ccccc4nc32)c1
IC50: > 50 µM (inactive)

Cc1cc(C)n2nc(CNc3cccc(Cl)c3)nc2n1
IC50: > 50 µM (inactive)

O=C(NCCCN1CCc2ccccc2C1)c1cc2c(s1)CS(=O)(=O)C2
IC50: > 50 µM (inactive)

CCC(=O)Nc1ccccc1-c1nc2ccccc2n(CC(=O)Nc2cc(OC)ccc2OC)c1=O
IC50: 19 µM

Cc1cccc(NC(=O)CN2C(=O)COc3cc(S(=O)(=O)N4CCCC4)ccc32)c1C
IC50: 20.9 µM

COc1ccc(CC(=O)Nc2ccc3nc(N4CCOCC4)cc(C)c3c2)cc1
IC50: > 50 µM (inactive)

COc1ccc(C(=O)Nc2ccc3c(c2)Sc2ncccc2C(=O)N3C)cn1
IC50: > 50 µM (inactive)

O=[N+]([O-])c1ccc(N2CCN(c3ncnc4c3[nH]c3ccc(F)cc34)CC2)cc1
IC50: 2.45 µM

CC1=C(c2ccc(F)cc2)S(=O)(=O)N=C1Nc1ccc(Cl)cc1
IC50: > 50 µM (inactive)

COc1ccc(NC(=O)C2CC(=O)Nc3cc(-c4ccccc4)nn32)cc1 (stereo unspecified)
IC50: 26.6 µM

Nc1ncnc2c1ncn2[C@@H]1O[C@H](CO)C[C@@H]1O
IC50: 33.4 µM

C=C(NC(=O)C(=C)NC(=O)c1csc(C2=N[C@@H]3c4csc(n4)[C@H]4NC(=O)c5csc(n5)[C@H]([C@](C)(O)[C@@H](C)O)NC(=O)[C@H]5CSC(=N5)/C(=C/C)NC(=O)C([C@@H](C)O)NC(=O)c5csc(n5)C3(CC2)NC(=O)[C@H](C)NC(=O)C(=C)NC(=O)[C@H](C)NC(=O)C([C@@H](C)CC)N[C@@H]2C=Cc3c(C(C)O)cc(nc3[C@H]2O)C(=O)OC4C)n1)C(N)=O (stereo partly specified)
IC50: > 50 µM (inactive)

Cc1cc(NC(=O)COc2ccc3oc4ccccc4c3c2)no1
IC50: > 50 µM (inactive)

CC1CC[C@]2(NC1)O[C@H]1C[C@H]3[C@@H]4CC[C@H]5C[C@@H](O[C@@H]6O[C@H](CO)[C@H](O[C@@H]7O[C@H](CO)[C@@H](O)[C@H](O[C@@H]8OC[C@@H](O)[C@H](O)[C@H]8O)[C@H]7O[C@@H]7O[C@H](CO)[C@@H](O)[C@H](O)[C@H]7O)[C@H](O)[C@H]6O)CC[C@]5(C)[C@H]4CC[C@]3(C)[C@H]1[C@@H]2C (stereo partly specified)
IC50: > 50 µM (inactive)

Cc1cc(/C=C2/C(=N)N3C(c4ccccc4)=CSC3=NC2=O)c(C)n1-c1ccc2ccccc2c1
IC50: > 50 µM (inactive)

Cc1ccc(-n2c(-c3ccccc3)cn3c4c(=O)[nH]c(=O)n(C)c4nc23)cc1Cl
IC50: > 50 µM (inactive)

CCCNC(=O)c1ccn(-c2ccc3ccc(-c4cnn(C)c4)cn23)n1
IC50: > 50 µM (inactive)
